Key:
[1] = target: TEAD1(210-426) binding to YAP(50-100) (Homo sapiens, UniProt P28347); experiment: TR-FRET Assay for TEAD1(210-426) Binding to YAP(50-100); details: His-TEAD 10 nM, YAP-Biotin peptide 50 nM
Protocol: Compounds were performed 3 fold serial dilution, 12 data points, added to 384 well white plate. The final DMSO concentration is 1%, duplicate for each concentration. Then His-TEAD protein was added to a final concentration of 10 nM, and allowed to preincubate for 30 minutes at room temperature. Assay buffer was added as background control.
YAP-Biotin peptide was added to a final concentration of 50 nM, mixed well, incubate 10 minutes at room temperature. The YAP(50-100) peptide sequence used here is named SEQ ID NO: 2
The Europium-labeled anti-6×His antibody and APC labeled streptavidin were diluted according to the instructions, this detection solution was mixed 1:1 with reaction solution, incubated 1 hour at room temperature.
TR-FRET measurements were made on an Envision (Perkin Elmer), using an excitation wavelength of 320 nm and emissions read at 620 nm and 665 nm. The ratio of the 665 nm to the 620 nm multiply 10000 provides a normalized TR-FRET signal that represents the extent of binding.
Half inhibition concentration IC50 value was calculated by XLfit software.

MSTO-211H cells = experiment: Proliferation Assay (CellTiter-Glo Luminescent Cell Viability Assay); format: cell-based; details: Homo sapiens, 96 hours treatment
Protocol: Example 5: Proliferation Assay
The effect of compound on YAP driven cancer cells proliferation was assessed in MSTO-211H (ATCC, CRL-2081TM) or NCI-H2052 (ATCC, CRL-5915TM) cells using CellTiter-Glo Luminescent Cell Viability Assay (Promega, G7570).
Briefly, individual cell lines were seeded in 96-well cell culture plate at the density of 1,500 cells per well and cultured in RPMII1640 (Gibco-A10491-01)+10% FBS (Gibco-10099-141C)+1% Penicillin-Streptomycin (5,000 U/mL, Gibco-15070-063) overnight at 37° C. with 5% CO2 before adding the compounds.
Following incubation, serial dilutions of compounds dissolved in DMSO were added to each well (3-fold dilution with 9 concentration points). The final concentration of DMSO present in this assay is below 0.5% and make duplication for each compound treated well.
Following 96 hours treatment, compound mediated cell growth inhibition was measured using CellTiter-Go Luminescent Cell Viability Assay (Promega, G7570). […] CellTiter-Glo in each assay well, mix and incubate at room temperature for 10 min. Read signal using EnVision® Multilabel Plate Reader (Perkin Elmer).
For data analysis, cell proliferation inhibition was calculated using the following formula:
Inhibition %=(1−(Compound treated well CTG signal/DMSO well CTG signal))*100.
IC50 values were calculated using GraphPad Prism software using a four-parameter fit model.

Sequence of TEAD1(210-426) binding to YAP(50-100) (P28347 209-426): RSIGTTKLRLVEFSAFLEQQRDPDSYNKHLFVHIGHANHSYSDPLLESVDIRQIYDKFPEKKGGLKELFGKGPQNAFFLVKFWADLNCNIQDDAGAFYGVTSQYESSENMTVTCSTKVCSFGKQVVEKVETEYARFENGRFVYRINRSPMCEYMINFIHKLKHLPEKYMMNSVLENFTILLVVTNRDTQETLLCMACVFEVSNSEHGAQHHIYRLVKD

| SMILES | IC50 [1] | IC50 (MSTO-211H cells) |
| --- | --- | --- |
| CNc1ccnc(Cn2ccc(-c3nn(-c4ccc(C(F)(F)F)cc4)c4cc(F)ccc34)cc2=O)n1 [Compound 53, 4-(6-fluoro-1-(4-(trifluoromethyl)phenyl)-1H-indazol-3-yl)-1-((4-(methylamino)pyrimidin-2-yl)methyl)pyridin-2(1H)-one] | ≤ 100 nM | ≤ 1000 nM |
| CNc1ccnc(Cn2ccc(-c3nn(-c4ccc(C(F)(F)F)cc4)c4ccc(F)cc34)cc2=O)n1 [Compound 54, 4-(5-fluoro-1-(4-(trifluoromethyl)phenyl)-1H-indazol-3-yl)-1-((4-(methylamino)pyrimidin-2-yl)methyl)pyridin-2(1H)-one] | ≤ 100 nM | ≤ 1000 nM |
| O=c1cc(-c2nn(-c3ccc(C(F)(F)F)cc3)c3ccccc23)ccn1Cc1nccc(N2CC[C@H](O)C2)n1 [Compound 55, (S)-1-((4-(3-hydroxypyrrolidin-1-yl)pyrimidin-2-yl)methyl)-4-(1-(4-(trifluoromethyl)phenyl)-1H-indazol-3-yl)pyridin-2(1H)-one] | ≤ 100 nM | ≤ 1000 nM |
| O=c1cc(-n2nc(-c3ccc(C(F)(F)F)cc3)c3ncccc32)ccn1Cc1ccnc(OCCO)n1 [Compound 56, 1-((2-(2-hydroxyethoxy)pyrimidin-4-yl)methyl)-4-(3-(4-(trifluoromethyl)phenyl)-1H-pyrazolo[4,3-b]pyridin-1-yl)pyridin-2(1H)-one] | ≤ 100 nM | ≤ 1000 nM |
| CNc1nccc(Cn2ccc(-c3nn(-c4ccc(C(F)(F)F)cc4C)c4ncccc34)cc2=O)n1 [Compound 57] | ≤ 100 nM | ≤ 1000 nM |
| CNc1nccc(Cn2ccc(-c3nn(-c4ccc(F)cc4)c4ncccc34)cc2=O)n1 [Compound 58, 4-(1-(4-fluorophenyl)-1H-pyrazolo[3,4-b]pyridin-3-yl)-1-((2-(methylamino)pyrimidin-4-yl)methyl) pyridin-2(1H)-one] | ≤ 100 nM | ≤ 1000 nM |
| CNc1nccc(Cn2ccc(-c3nn(-c4ccc(OC(F)(F)F)cc4)c4ncccc34)cc2=O)n1 [Compound 59, 1-((2-(methylamino)pyrimidin-4-yl)methyl)-4-(1-(4-(trifluoromethoxy)phenyl)-1H-pyrazolo[3,4-b]pyridin-3-yl) pyridin-2(1H)-one] | ≤ 100 nM | ≤ 1000 nM |
| Nc1cccc(Cn2ccc(-c3nn(-c4ccc(C(F)(F)F)cc4)c4ccccc34)cc2=O)n1 [Compound 60, 1-((6-aminopyridin-2-yl)methyl)-4-(1-(4-(trifluoromethyl)phenyl)-1H-indazol-3-yl)pyridin-2(1H)-one] | ≤ 100 nM | ≤ 1000 nM |
| Nc1nccc(Cn2ccc(-c3nn(-c4ccc(C(F)(F)F)cc4)c4ccccc34)cc2=O)n1 [Compound 61, 1-((2-aminopyrimidin-4-yl)methyl)-4-(1-(4-(trifluoromethyl)phenyl)-1H-indazol-3-yl)pyridin-2(1H)-one] | ≤ 100 nM | ≤ 1000 nM |
| O=c1cc(-c2nn(-c3ccc(C(F)(F)F)cc3)c3ccccc23)ccn1Cc1cccnn1 [Compound 62, 1-(pyridazin-3-ylmethyl)-4-(1-(4-(trifluoromethyl)phenyl)-1H-indazol-3-yl)pyridin-2(1H)-one] | ≤ 100 nM | ≤ 1000 nM |
| O=c1cc(-c2nn(-c3ccc(C(F)(F)F)cc3)c3ccccc23)ccn1Cc1cnccn1 [Compound 63, 1-(pyrazin-2-ylmethyl)-4-(1-(4-(trifluoromethyl)phenyl)-1H-indazol-3-yl)pyridin-2(1H)-one] | ≤ 100 nM | ≤ 1000 nM |
| Cn1ccc(Cn2ccc(-c3cn(-c4ccc(C(F)(F)F)cc4)c4ncccc34)cc2=O)n1 [Compound 64, 1-((1-methyl-1H-pyrazol-3-yl)methyl)-4-(1-(4-(trifluoromethyl)phenyl)-1H-pyrrolo[2,3-b]pyridin-3-yl)pyridin-2(1H)-one] | ≤ 100 nM | ≤ 1000 nM |
| Nc1cncc(Cn2ccc(-c3nn(-c4ccc(C(F)(F)F)cc4)c4ccccc34)cc2=O)n1 [Compound 65, 1-((6-aminopyrazin-2-yl)methyl)-4-(1-(4-(trifluoromethyl)phenyl)-1H-indazol-3-yl)pyridin-2(1H)-one] | ≤ 100 nM | ≤ 1000 nM |
| CN(C)c1nccc(Cn2ccc(-c3nn(-c4ccc(C(F)(F)F)cc4)c4ccccc34)cc2=O)n1 [Compound 66, 1-((2-(dimethylamino)pyrimidin-4-yl)methyl)-4-(1-(4-(trifluoromethyl)phenyl)-1H-indazol-3-yl)pyridin-2(1H)-one] | ≤ 100 nM | ≤ 1000 nM |
| CNc1nccc(Cn2ccc(-c3nn(-c4ccc(C(F)(F)F)cc4)c4ccccc34)cc2=O)c1F [Compound 67, 1-((3-fluoro-2-(methylamino)pyridin-4-yl)methyl)-4-(1-(4-(trifluoromethyl)phenyl)-1H-indazol-3-yl)pyridin-2(1H)-one] | ≤ 100 nM | ≤ 1000 nM |
| COc1ccnc(Cn2ccc(-c3nn(-c4ccc(C(F)(F)F)cc4)c4ccccc34)cc2=O)n1 [Compound 68, 1-((4-methoxypyrimidin-2-yl)methyl)-4-(1-(4-(trifluoromethyl)phenyl)-1H-indazol-3-yl)pyridin-2(1H)-one] | ≤ 100 nM | ≤ 1000 nM |
| CNc1ccnc(Cn2ccc(-c3nn(-c4ccc(C(F)(F)F)cc4)c4ccccc34)cc2=O)n1 [Compound 69, 1-((4-(methylamino)pyrimidin-2-yl)methyl)-4-(1-(4-(trifluoromethyl)phenyl)-1H-indazol-3-yl)pyridin-2(1H)-one] | ≤ 100 nM | ≤ 1000 nM |
| CNc1ccnc(Cn2ccc(-c3nn(-c4ccc(C(F)(F)F)cc4)c4ncccc34)cc2=O)n1 [Compound 70, 1-((4-(methylamino)pyrimidin-2-yl)methyl)-4-(1-(4-(trifluoromethyl)phenyl)-1H-pyrazolo[3,4-b]pyridin-3-yl)pyridin-2(1H)-one] | ≤ 100 nM | ≤ 1000 nM |
| O=c1cc(-c2nn(-c3ccc(C(F)(F)F)cc3)c3ccccc23)ccn1Cc1nccc(O)n1 [Compound 71] | ≤ 100 nM | ≤ 1000 nM |
| CN(CCO)c1nccc(Cn2ccc(-c3nn(-c4ccc(C(F)(F)F)cc4)c4ncccc34)cc2=O)n1 [Compound 72] | ≤ 100 nM | ≤ 1000 nM |
| O=c1cc(-c2nn(-c3ccc(C(F)(F)F)cc3)c3ncccc23)ccn1Cc1ccnc(NCCO)n1 [Compound 73, 1-((2-((2-hydroxyethyl)amino)pyrimidin-4-yl)methyl)-4-(1-(4-(trifluoromethyl)phenyl)-1H-pyrazolo[3,4-b]pyridin-3-yl)pyridin-2(1H)-one] | ≤ 100 nM | ≤ 1000 nM |
| O=c1cc(-c2nn(-c3ccc(C(F)(F)F)cc3)c3ncccc23)ccn1Cc1ccn(CCO)n1 [Compound 74, 1-((1-(2-hydroxyethyl)-1H-pyrazol-3-yl)methyl)-4-(1-(4-(trifluoromethyl)phenyl)-1H-pyrazolo[3,4-b]pyridin-3-yl)pyridin-2(1H)-one] | ≤ 100 nM | ≤ 1000 nM |
| CN(CCO)c1ccnc(Cn2ccc(-c3nn(-c4ccc(C(F)(F)F)cc4)c4ncccc34)cc2=O)n1 [Compound 75, 1-((4-((2-hydroxyethyl)(methyl)amino)pyrimidin-2-yl)methyl)-4-(1-(4-(trifluoromethyl)phenyl)-1H-pyrazolo[3,4-b]pyridin-3-yl)pyridin-2(1H)-one] | ≤ 100 nM | ≤ 1000 nM |
| COCCNc1ccnc(Cn2ccc(-c3nn(-c4ccc(C(F)(F)F)cc4)c4ncccc34)cc2=O)n1 [Compound 76, 1-((4-((2-methoxyethyl)amino)pyrimidin-2-yl)methyl)-4-(1-(4-(trifluoromethyl)phenyl)-1H-pyrazolo[3,4-b]pyridin-3-yl)pyridin-2(1H)-one] | ≤ 100 nM | ≤ 1000 nM |
| COCCNc1ccnc(Cn2ccc(-c3nn(-c4ccc(C(F)(F)F)cc4)c4ccccc34)cc2=O)n1 [Compound 78, 1-((4-((2-methoxyethyl)amino)pyrimidin-2-yl)methyl)-4-(1-(4-(trifluoromethyl)phenyl)-1H-indazol-3-yl)pyridin-2(1H)-one] | ≤ 100 nM | ≤ 1000 nM |
| COc1ccnc(Cn2ccc(-c3cn(-c4ccc(C(F)(F)F)cc4)c4ncccc34)cc2=O)n1 [Compound 80, 1-((4-methoxypyrimidin-2-yl)methyl)-4-(1-(4-(trifluoromethyl)phenyl)-1 H-pyrrolo[2,3-b]pyridin-3-yl)pyridin-2(1H)-one] | ≤ 100 nM | ≤ 1000 nM |
